Structures can show the parent of a compound that is named as a salt.
Target: T1, P2X4 receptor (recombinant mouse P2X4 purinoceptor) (Mus musculus, UniProt Q9JJX6)
T1 construct: gene P2rx4; the complete extracellular domain, N-terminal His-6 tag, expressed in E. coli
T1 sequence (Q9JJX6 55-338): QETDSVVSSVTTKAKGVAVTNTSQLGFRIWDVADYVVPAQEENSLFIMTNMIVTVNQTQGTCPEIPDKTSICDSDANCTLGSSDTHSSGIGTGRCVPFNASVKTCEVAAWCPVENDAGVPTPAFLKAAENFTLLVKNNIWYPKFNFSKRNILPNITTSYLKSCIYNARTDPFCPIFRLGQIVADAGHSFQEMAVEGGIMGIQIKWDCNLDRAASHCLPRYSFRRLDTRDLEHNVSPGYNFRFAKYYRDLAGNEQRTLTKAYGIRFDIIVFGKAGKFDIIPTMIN
Assay: SPR (Biacore T200, P2X4 immobilized on CM5 chip)
Assay type: binding

For C=C(C)CCC[C@]1(C)OC(=O)[C@]23CCC4C(=CC[C@H]5C(C)(C)[C@@H](O[C@@H]6OC[C@@H](OS(=O)(=O)O)[C@H](O)[C@H]6O[C@@H]6O[C@H](C)[C@@H](O[C@@H]7O[C@H](CO)[C@@H](O)[C@H](O[C@@H]8O[C@H](CO)[C@@H](O)[C@H](OC)[C@H]8O)[C@H]7O)[C@H](O)[C@H]6O[C@@H]6OC[C@@H](O)[C@H](O)[C@H]6O)CC[C@]45C)[C@]2(C)CC(=O)[C@@H]31 (stereo partly drawn) [CA2-2, 3-O-{3-O-methyl-β-D-glucopyranosyl-(1→3)-β-D-glucopyranosyl-(1→4)-[β-D-xylopyranosyl-(1→2)]-β-D-quinovopyranosyl-(1→2)−4-O-sodium sulfate-β-D-xylopyranosyl}−16-keto-holosta-7,25-diene], the Kd was 45.2 µM.

Reference: publication PMC5177912, “Glycosides from edible sea cucumbers stimulate macrophages via purinergic receptors” (Scientific Reports, 2016)
